{
  "source": "paper PMC7701510",
  "about": "“Identification of HN252 as a potent inhibitor of protein phosphatase PPM1B” (Journal of Cellular and Molecular Medicine, 2020)",
  "key": {"Cytotoxicity": {"assay": "Cytotoxicity", "type": "cell-based", "details": "low micromolar range; data not shown"}, "SSH2": {"molecular_target": "T1, SSH2 (Homo sapiens, UniProt Q76I76)", "T1 sequence (Q76I76 1-1423)": "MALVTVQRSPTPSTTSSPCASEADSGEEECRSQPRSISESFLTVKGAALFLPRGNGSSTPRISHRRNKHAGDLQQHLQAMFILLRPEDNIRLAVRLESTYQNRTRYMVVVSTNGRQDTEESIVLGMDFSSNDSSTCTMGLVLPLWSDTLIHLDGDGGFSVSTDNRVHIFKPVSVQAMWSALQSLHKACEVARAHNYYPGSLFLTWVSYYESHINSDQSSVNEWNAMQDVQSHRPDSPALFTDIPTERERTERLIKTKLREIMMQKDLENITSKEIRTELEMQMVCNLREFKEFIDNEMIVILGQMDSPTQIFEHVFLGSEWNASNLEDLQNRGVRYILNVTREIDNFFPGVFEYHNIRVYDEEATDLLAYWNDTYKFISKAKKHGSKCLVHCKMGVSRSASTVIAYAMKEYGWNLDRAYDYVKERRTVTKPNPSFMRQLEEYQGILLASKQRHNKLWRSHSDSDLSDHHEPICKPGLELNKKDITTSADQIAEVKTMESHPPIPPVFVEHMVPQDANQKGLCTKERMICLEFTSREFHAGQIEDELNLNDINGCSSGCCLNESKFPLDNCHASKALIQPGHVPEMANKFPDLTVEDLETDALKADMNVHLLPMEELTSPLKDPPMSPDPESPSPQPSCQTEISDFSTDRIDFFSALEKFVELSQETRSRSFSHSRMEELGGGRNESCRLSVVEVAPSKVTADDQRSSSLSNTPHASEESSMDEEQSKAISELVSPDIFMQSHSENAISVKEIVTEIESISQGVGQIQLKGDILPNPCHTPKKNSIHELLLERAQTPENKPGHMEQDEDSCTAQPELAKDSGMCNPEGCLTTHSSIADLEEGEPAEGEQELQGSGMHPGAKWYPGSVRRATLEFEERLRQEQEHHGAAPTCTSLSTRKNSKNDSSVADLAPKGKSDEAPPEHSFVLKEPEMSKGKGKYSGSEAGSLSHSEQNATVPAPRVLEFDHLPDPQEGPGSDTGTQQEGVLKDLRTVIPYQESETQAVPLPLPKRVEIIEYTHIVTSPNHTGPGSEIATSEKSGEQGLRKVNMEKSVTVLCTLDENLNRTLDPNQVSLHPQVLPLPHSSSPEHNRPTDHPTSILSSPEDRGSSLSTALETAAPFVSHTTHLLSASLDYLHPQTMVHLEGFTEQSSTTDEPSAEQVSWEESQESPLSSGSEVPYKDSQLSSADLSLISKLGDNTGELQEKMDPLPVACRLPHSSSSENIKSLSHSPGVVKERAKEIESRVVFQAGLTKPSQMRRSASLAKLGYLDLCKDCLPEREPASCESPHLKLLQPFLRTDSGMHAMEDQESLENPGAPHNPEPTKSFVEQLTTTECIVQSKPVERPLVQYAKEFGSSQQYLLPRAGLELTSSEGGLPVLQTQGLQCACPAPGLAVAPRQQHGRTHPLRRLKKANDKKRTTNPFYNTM", "assay": "pNPP hydrolysis phosphatase assay (selectivity panel)", "type": "biochemical", "details": "pNPP as substrate"}, "PPM1G": {"molecular_target": "T2, PPM1G (Homo sapiens, UniProt O15355)", "T2 sequence (O15355 1-546)": "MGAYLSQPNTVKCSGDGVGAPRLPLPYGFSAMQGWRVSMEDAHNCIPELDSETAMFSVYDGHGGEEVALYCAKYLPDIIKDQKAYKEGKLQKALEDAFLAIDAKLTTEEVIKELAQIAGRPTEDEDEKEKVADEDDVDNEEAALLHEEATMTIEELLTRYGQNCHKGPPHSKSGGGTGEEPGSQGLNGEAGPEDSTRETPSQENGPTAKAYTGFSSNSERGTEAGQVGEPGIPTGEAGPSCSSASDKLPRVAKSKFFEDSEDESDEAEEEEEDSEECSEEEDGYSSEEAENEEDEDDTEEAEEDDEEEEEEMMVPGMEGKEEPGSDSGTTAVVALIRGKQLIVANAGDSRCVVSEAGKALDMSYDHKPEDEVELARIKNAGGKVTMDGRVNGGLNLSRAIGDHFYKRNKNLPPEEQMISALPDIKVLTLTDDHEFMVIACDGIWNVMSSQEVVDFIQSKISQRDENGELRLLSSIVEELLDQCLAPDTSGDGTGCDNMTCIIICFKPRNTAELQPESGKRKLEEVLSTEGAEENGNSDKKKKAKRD", "assay": "pNPP hydrolysis phosphatase assay (selectivity panel)", "type": "biochemical", "details": "pNPP as substrate"}, "LYP": {"molecular_target": "T3, LYP (Homo sapiens, UniProt Q9Y2R2)", "T3 sequence (Q9Y2R2 1-807)": "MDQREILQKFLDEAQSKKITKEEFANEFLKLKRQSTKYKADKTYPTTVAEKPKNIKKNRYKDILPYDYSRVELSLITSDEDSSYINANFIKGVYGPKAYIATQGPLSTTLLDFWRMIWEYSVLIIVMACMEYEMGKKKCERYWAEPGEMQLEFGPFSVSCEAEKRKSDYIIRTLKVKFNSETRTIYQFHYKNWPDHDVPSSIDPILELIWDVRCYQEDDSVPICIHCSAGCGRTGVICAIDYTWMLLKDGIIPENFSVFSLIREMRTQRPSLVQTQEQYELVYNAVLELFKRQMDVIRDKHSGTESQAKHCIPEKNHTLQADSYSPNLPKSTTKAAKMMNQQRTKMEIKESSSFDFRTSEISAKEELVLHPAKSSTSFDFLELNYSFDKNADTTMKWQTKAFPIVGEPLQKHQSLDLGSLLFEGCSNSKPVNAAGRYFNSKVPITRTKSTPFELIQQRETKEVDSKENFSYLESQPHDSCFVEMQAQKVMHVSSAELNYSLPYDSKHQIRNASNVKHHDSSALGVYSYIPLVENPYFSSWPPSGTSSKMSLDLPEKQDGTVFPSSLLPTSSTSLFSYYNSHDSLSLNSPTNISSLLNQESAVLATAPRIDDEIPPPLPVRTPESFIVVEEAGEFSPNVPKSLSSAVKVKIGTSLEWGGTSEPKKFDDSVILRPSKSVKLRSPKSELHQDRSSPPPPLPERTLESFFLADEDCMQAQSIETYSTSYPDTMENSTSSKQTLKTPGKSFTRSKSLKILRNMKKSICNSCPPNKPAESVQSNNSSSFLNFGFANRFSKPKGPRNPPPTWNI", "assay": "pNPP hydrolysis phosphatase assay (selectivity panel)", "type": "biochemical", "details": "pNPP as substrate"}, "YPH": {"molecular_target": "YPH (Yersinia enterocolitica, UniProt P15273)", "sequence (P15273 163-468 limits assumed)": "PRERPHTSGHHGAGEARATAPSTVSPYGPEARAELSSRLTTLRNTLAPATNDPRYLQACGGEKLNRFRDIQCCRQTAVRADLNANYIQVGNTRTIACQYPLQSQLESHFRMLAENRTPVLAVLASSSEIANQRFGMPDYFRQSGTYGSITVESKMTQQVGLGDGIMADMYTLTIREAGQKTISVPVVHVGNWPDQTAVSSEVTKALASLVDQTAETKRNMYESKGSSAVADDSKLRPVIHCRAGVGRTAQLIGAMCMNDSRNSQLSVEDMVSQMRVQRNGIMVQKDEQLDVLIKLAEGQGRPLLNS", "type": "biochemical"}},
  "data": [
    {"smiles": "Nc1cc(-c2ccc(-c3ccc(O)c(O)c3)cc2)ccc1C(=O)O", "note": "[HN252]", "values": [
      {"measurement": "cytotoxicity", "setting": "Cytotoxicity", "value": "no detectable cytotoxicity"},
      {"measurement": "IC50", "setting": "SSH2", "value": "55.1 ± 2.88", "unit": "µM"},
      {"measurement": "IC50", "setting": "PPM1G", "value": "32.6 ± 5.54", "unit": "µM"},
      {"measurement": "IC50", "setting": "LYP", "value": "98.2 ± 11.7", "unit": "µM"},
      {"measurement": "IC50", "setting": "YPH", "value": "77.2 ± 7.95", "unit": "µM"}
    ]}
  ]
}
